Measurements reported in ChEMBL document CHEMBL1133931, “Anti-AIDS agents. Part 47: Synthesis and anti-HIV activity of 3-substituted 3',4'-Di-O-(S)-camphanoyl-(3'R,4'R)-(+)-cis-khellactone derivatives” (Bioorg Med Chem Lett, 2001).
pEC50, pIC50: −log10 of the molar value.

Tests used:
[1] = Therapeutic index (IC50/EC50) of compound was determined in acutely infected H9 cell; assay type: cell-based; conditions: human, acutely infected H9 cells; read-out: TI
H9 [2] = test: Inhibitory concentration against HIV-1 replication in acutely infected H9 lymphocytes; assay type: functional, cell-based; conditions: Homo sapiens
H9 [3] = test: Inhibitory concentration required to inhibit uninfected H9 cell growth by 50%; assay type: functional, cell-based; conditions: Homo sapiens

Row | Compound | selectivity ratio [1] | pEC50 (H9 [2]) | pIC50 (H9 [3])
1 | CC1(C)Oc2ccc3ccc(=O)oc3c2[C@@H](OC(=O)C23CCC(C)(C(=O)O2)C3(C)C)[C@H]1OC(=O)C12CCC(C)(C(=O)O1)C2(C)C (stereo partly drawn) | 137000 |  | 
2 | CCN(CC)Cc1cc2ccc3c(c2oc1=O)[C@@H](OC(=O)C12CCC(C)(C(=O)O1)C2(C)C)[C@@H](OC(=O)C12CCC(C)(C(=O)O1)C2(C)C)C(C)(C)O3 (stereo partly drawn) | 62 | 6.16 | 4.37
3 | CC1(C)Oc2ccc3cc(C(Br)Br)c(=O)oc3c2[C@@H](OC(=O)C23CCC(C)(C(=O)O2)C3(C)C)[C@H]1OC(=O)C12CCC(C)(C(=O)O1)C2(C)C (stereo partly drawn) | 26900 | 9.92 | 5.49
4 | CC1(C)Oc2ccc3cc(CO)c(=O)oc3c2[C@@H](OC(=O)C23CCC(C)(C(=O)O2)C3(C)C)[C@H]1OC(=O)C12CCC(C)(C(=O)O1)C2(C)C (stereo partly drawn) | 188000 | 9.73 | 4.45
5 | CC1(C)Oc2ccc3cc(CBr)c(=O)oc3c2[C@@H](OC(=O)C23CCC(C)(C(=O)O2)C3(C)C)[C@H]1OC(=O)C12CCC(C)(C(=O)O1)C2(C)C (stereo partly drawn) | 40 | 7.07 | 5.47
6 | CC1(C)Oc2ccc3cc(CN)c(=O)oc3c2[C@@H](OC(=O)C23CCC(C)(C(=O)O2)C3(C)C)[C@H]1OC(=O)C12CCC(C)(C(=O)O1)C2(C)C (stereo partly drawn) |  | 6.41 | 4.48
7 | CC(=O)OCc1cc2ccc3c(c2oc1=O)[C@@H](OC(=O)C12CCC(C)(C(=O)O1)C2(C)C)[C@@H](OC(=O)C12CCC(C)(C(=O)O1)C2(C)C)C(C)(C)O3 (stereo partly drawn) | 3240 | 8.99 | 5.48
